Assay results: patent US20160222014A1, “COMPOUNDS FOR REGULATING FAK AND/OR SRC PATHWAYS” (ASANA BIOSCIENCES, LLC, priority 2013, published 2016)
Like-named read-outs stand apart in the source and are kept apart here.

Key:
recombinant human FAK1 = target: T1, recombinant human FAK1 (Homo sapiens, UniProt Q05397); experiment: FAK1 HTRF assay; assay type: biochemical
T1 construct: fused on or other part: N-terminal 6xHis tag
How it was run: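 His-tagged human FAK1 (residues 692–end, Sf9-expressed), 10 nM final, with 0.5 μM biotinylated gastrin-precursor Tyr87 peptide and a 10 μM final reagent in pH 7.4 buffer, 45 min at rt. Detection used Eu anti-pTyr antibody plus SA-APC (665/620 nm). Compounds top concentration 10 μM; IC50 from % inhibition.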

[1] = target: T2, FAK phosphorylated at Y397 in HEK-FAK cell line overexpressing human FL FAK protein (Homo sapiens, UniProt Q05397); experiment: Cell based assay, Phospho-FAK ELISA; settings: HEK stb
T2 construct: expressed in transfected cells
Excerpt: D. Cell Based Assay-Phospho-FAK ELISA
The DuoSet IC ELISA (R&D systems—Cat no. DYC4528-5) provided the basic components required for the development of sandwich ELISAs to measure Focal Adhesion Kinase 1 (FAK) phosphorylated at Y397 in cell lysates. An immobilized capture antibody specific for FAK, also known as PTK2, binds both phosphorylated and unphosphorylated protein. After washing away unbound material, a biotinylated detection antibody specific for FAK phosphorylated at Y397 was used to detect only phosphorylated protein, utilizing a standard Streptavidin-HRP format. The cell line used for the assay was a stable HEK-FAK cell line overexpressing human FL FAK protein, which was generated as follows.
HEK293 cells (ATCC® CRL-1573™, 10801 University Boulevard, Manassas, Va. 20110 USA) were seeded in four 100 mm petri dishes at a seeding density of 1.5×10^6 cells per plate and incubated overnight at 37° C. in a 5% CO2 incubator. The transfection mix was prepared as follows. (A) 10 μg DNA (pCDNA4 V5/HisA vector containing Zeocin as mammalian selection marker, procured from Invitrogen) with the full length human FAK gene represented by the nucleotide sequence provided in NCBI Reference Sequence: NM_153831.3, SEQ ID NO: 1:
was added to 1.5 mL Opti-MEM® (reduced serum media is a modification of Eagle's Minimum Essential Media, buffered with HEPES and sodium bicarbonate and supplemented with hypoxanthine, thymidine, sodium pyruvate, L-glutamine, trace elements and growth factors commercially available from Invitrogen) and incubated at room temperature for 5 minutes. (B) 30 μL Lipofectamine™ Transfection reagent (Life Technologies) was added to 1.5 mL Opti-MEM® and incubated at room temperature for 5 minutes. Following this, (a) and (b) were mixed and incubated at room temperature for 20 minutes. Media was removed from cells and washed with 1× phosphate buffered saline (PBS) and the transfection mix prepared above was mixed with 3 mL of Opti-MEM®, added to the cells and incubated at 37° C. Four hours later, 6 mL of 20% Dulbecco's Modified Eagle Medium (DMEM) was added to the plates and incubated at 37° C. in a 5% CO2 incubator. Approximately 72 hours after transfection, cells were subcultured at various dilutions with fresh medium containing 0.8 mg/mL Zeocin™ (Life Technologies). Cells were replenished with selective medium every 3-4 days until cell foci were identified in the FAK transfected cells and most of the cells died in the control plates. Cells from these foci were grown in the presence of selective media and the expression of FAK was confirmed by Western Blotting. Over expression of FAK in the stably-transfected cells was quantified in the cell-based ELISA assay described below by determining the signal window, with a signal window of 2 or above considered to be robust). The HEK-FAK stable cell line thus was maintained in 0.8 mg/mL Zeocin™ (Life Technologies) and used in cell-based ELISA to assess autophosphorylation of FAK.
(i) Materials • 1. Phospho-FAK (Y397)-Capture Antibody • 2. Phospho-FAK (Y397)-Detection Antibody • 3. Streptavidin-HRP • 4. Cells used for the assay-HEK over expressing human FL FAK protein
(ii) Solutions • PBS—137 mM NaCl, 2.7 mM KCl, 8.1 mM Na2HPO4, 1.5 mM KH2PO4, pH 7.2-7.4, 0.2 μm filtered. • Wash Buffer—0.05% Tween20™ in PBS, pH 7.2-7.4 • Block Buffer—1% BSA, 0.05% NaN3, in PBS, pH 7.2-7.4. • IC Diluent #1-1% BSA in PBS, pH 7.2-7.4, 0.2 μm filtered. • IC Diluent #8-1 mM EDTA, 0.5% Triton™ X-100, 5 mM NaF in PBS, pH 7.2-7.4. IC Diluent #8 was also the base buffer for IC Diluent #3, IC Diluent #7, and Lysis. • Buffer #6. […]

AURKB (Aurora B) enzyme = target: T3, AURKB (Aurora B) enzyme (Homo sapiens, UniProt Q96GD4); experiment: Aurora B HTRF assay; assay type: biochemical; settings: read-out: AuroraB IC50
T3 construct: purchased Invitrogen PVR 130
How it was run: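 HTRF kinase assay with 5 nM Aurora B and 50 nM ULight-PLK (Ser137) peptide, with a reagent at 30 μM final; 1 h at rt. Reaction stopped with EDTA, and phospho-peptide detected with 2 nM Eu-anti-P-PLK(Ser137) antibody after 1 h at rt, read as HTRF.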

[2] = read-out: pFAK EC50 (μM) HEK stb

T2 sequence (Q05397 whole entry): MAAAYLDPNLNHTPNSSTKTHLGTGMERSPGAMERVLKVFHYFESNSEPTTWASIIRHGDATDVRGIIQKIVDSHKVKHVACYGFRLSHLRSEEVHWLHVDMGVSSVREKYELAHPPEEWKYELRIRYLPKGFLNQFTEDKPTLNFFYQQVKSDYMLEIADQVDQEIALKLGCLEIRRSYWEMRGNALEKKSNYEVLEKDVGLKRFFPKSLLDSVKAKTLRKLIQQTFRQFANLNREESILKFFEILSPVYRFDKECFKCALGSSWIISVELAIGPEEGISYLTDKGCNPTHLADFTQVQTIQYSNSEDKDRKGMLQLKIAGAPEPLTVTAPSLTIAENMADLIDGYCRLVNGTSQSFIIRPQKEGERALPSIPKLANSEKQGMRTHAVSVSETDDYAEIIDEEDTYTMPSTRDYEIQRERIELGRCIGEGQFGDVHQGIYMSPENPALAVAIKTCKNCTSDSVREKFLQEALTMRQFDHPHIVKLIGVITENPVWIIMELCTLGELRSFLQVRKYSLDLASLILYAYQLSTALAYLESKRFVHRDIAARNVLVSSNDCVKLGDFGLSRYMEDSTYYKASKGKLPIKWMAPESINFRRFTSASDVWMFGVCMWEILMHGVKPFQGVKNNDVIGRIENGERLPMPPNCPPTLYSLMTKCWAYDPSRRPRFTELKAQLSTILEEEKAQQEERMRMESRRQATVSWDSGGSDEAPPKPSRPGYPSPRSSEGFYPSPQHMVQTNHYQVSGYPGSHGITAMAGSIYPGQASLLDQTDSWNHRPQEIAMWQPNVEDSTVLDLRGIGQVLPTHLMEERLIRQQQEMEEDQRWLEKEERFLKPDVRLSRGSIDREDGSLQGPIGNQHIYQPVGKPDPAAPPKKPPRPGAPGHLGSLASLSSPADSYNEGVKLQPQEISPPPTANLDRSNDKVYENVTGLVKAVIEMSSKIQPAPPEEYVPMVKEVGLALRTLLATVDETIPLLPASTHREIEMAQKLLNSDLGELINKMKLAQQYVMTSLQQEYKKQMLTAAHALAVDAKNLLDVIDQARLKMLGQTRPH
T3 sequence (Q96GD4 whole entry): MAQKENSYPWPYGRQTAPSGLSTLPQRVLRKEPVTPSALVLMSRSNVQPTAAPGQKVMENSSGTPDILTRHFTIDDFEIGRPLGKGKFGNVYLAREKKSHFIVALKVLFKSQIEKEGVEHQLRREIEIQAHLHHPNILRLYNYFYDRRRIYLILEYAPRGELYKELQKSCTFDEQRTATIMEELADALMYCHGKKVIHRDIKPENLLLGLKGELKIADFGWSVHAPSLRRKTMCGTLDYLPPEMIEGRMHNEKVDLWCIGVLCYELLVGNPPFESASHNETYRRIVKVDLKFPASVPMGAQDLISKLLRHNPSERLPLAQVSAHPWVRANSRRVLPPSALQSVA
T1 sequence (Q05397 422-680 limits assumed): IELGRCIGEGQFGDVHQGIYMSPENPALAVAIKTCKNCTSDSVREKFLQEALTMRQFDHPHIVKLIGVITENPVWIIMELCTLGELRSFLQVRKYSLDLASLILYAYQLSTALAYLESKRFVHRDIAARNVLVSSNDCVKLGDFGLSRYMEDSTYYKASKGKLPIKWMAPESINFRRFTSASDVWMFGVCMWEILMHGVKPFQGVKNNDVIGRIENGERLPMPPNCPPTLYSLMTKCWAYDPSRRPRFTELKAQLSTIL

Row | IC50 (recombinant human FAK1) | EC50 [1, 2] | IC50 (AURKB (Aurora B) enzyme) | EC50 ([1]; read-out: pFAK EC50 HEK stb) | Structure (SMILES)
1 | < 20 nM | > 1 µM | – | – | CN(c1ncccc1Cn1ccc2cnc(Nc3ccc4c(c3)CCC(=O)N4)cc21)S(C)(=O)=O [Example 31]
2 | < 20 nM | > 1 µM | – | – | CN(c1ncccc1Cn1ccc2cnc(Nc3ccc4[nH]c(=O)[nH]c4c3)nc21)S(C)(=O)=O [Example 77]
3 | < 20 nM | < 0.02 µM | < 20 nM | – | COc1cc(Nc2ncc3ccn(S(=O)(=O)c4cccc5cccnc45)c3n2)ccc1N1CCNCC1 [Example 198]
4 | < 20 nM | > 1 µM | – | – | CN(c1ccccc1Cn1ncc2cnc(Nc3ccc4c(c3)CCC(=O)N4)cc21)S(C)(=O)=O [Example 225]
5 | – | > 1 µM | < 20 nM | – | C[C@H]1CN(c2ccc(Nc3ncc4ccn(S(=O)(=O)c5ccccc5C#N)c4n3)cc2)CCN1 [Example 242]
6 | – | > 1 µM | < 20 nM | – | COc1ccccc1S(=O)(=O)N1CCc2cnc(Nc3ccc(N4CCNCC4)cc3)nc21 [Example 344]
7 | – | > 1 µM | < 20 nM | – | O=S(=O)(c1cccc2cccnc12)n1ccc2cnc(Nc3cnn(C4CCNCC4)c3)nc21 [Example 355]
8 | – | > 1 µM | < 20 nM | – | COc1cc(Nc2ncc3ccn(S(=O)(=O)c4cccc5cccnc45)c3n2)cc(OC)c1OC [Example 392]
9 | < 20 nM | > 1 µM | – | – | COc1cc(Nc2ncc3ccn(Cc4ccccc4N(C)S(C)(=O)=O)c3n2)ccc1N1CCN(CCO)CC1 [Example 421]
10 | – | > 1 µM | < 20 nM | – | C[C@@H]1CNCCN1c1ccc(Nc2cc3c(ccn3S(=O)(=O)c3ccccc3C#N)cn2)cc1 [Example 479]
11 | < 20 nM | > 1 µM | – | – | CN1CCN(c2ccc(Nc3cc4c(ccn4S(=O)(=O)c4ccccc4C#N)cn3)cc2)CC1 [Example 506]
12 | < 20 nM | > 1 µM | – | – | CN(c1ccccc1Cn1ccc2cnc(Nc3ccc4c(c3)CC3CNCCN43)nc21)S(C)(=O)=O (centres unmarked) [Example 526]
13 | – | > 1 µM | > 1000 nM | – | CC1(C)CN(c2ccccn2)c2nc(Nc3ccc(N4CCNCC4)cc3)ncc21 [Example 534]
14 | – | > 1 µM | < 20 nM | – | CN(c1ncccc1Cn1ccc2cnc(Nc3ccc4c(c3)CC(=O)N4CCO)nc21)S(C)(=O)=O [Example 615]
15 | – | > 1 µM | – | – | CN(c1ncccc1Cn1ccc2cnc(Nc3ccc(-c4ccc(=O)[nH]c4)cc3)nc21)S(C)(=O)=O [Example 688]
16 | – | > 1 µM | – | – | C[C@H](O)CN1CCN(c2ccc(Nc3ncc4ccn(Cc5cccnc5N(C)S(C)(=O)=O)c4n3)cc2)C[C@H]1C [Example 694]
17 | – | > 1 µM | – | – | CN(c1ncccc1Cn1ccc2cnc(Nc3ccc4[nH]c(C(=O)N5CCNCC5)cc4c3)nc21)S(C)(=O)=O [Example 696]
18 | – | > 1 µM | – | – | CN(c1ccccc1Cn1ccc2cnc(Nc3ccc4[nH]c(C(=O)N5CCNCC5)cc4c3)nc21)S(C)(=O)=O [Example 698]
19 | < 20 nM | < 0.02 µM | – | – | COc1ccc(N(C)S(C)(=O)=O)c(Cn2ccc3cnc(Nc4ccc(N5CCC(N(C)C)CC5)cc4)nc32)c1 [Example 706]
20 | – | > 1 µM | – | – | C[C@H]1CN(c2ccc(Nc3ncc4ccn(Cc5ccccc5NS(=O)(=O)CCCF)c4n3)cc2)CCN1 [Example 723]
21 | – | > 1 µM | – | – | C[C@@H]1CN(c2ccc(Nc3ncc4c(n3)N(c3ccccn3)CC4(C)C)cc2)CCN1 [Example 726]
22 | – | > 1 µM | – | – | CN(c1ncccc1Cn1ccc2cnc(Nc3ccc(N4CCNC(CF)C4)cc3)nc21)S(C)(=O)=O (centres unmarked) [Example 737, N-(3-((2-((4-(3-(fluoromethyl)piperazin-1-yl)phenyl)amino)-7H-pyrrolo[2,3-d]pyrimidin-7-yl)methyl)pyridin-2-yl)-N-methylmethanesulfonamide]
23 | – | > 1 µM | – | – | CN(c1ncccc1Cn1ccc2cnc(Nc3ccc(N4CCCC(N)C4)cc3)nc21)S(C)(=O)=O (centres unmarked) [Example 776]
24 | – | – | – | > 1 µM | Cc1cc(Nc2ncc3ccn(Cc4cccnc4N(C)S(C)(=O)=O)c3n2)ccc1C1CCN(CCO)CC1 [Example 887]
25 | – | – | – | > 1 µM | CNC(=O)c1ccc(Nc2ncc3ccn(Cc4cccnc4N(C)S(C)(=O)=O)c3n2)cc1 [Example 982]
